Measured values taken from ChEMBL document CHEMBL5331046, “Disulfiram and dithiocarbamate analogues demonstrate promising antischistosomal effects” (Eur J Med Chem, 2022).
Activity calls are given as the source filed them. The calls are words filed in the database; no cut-off is given here.

Columns and labels:
Schistosoma mansoni [1] = assay: Antischistosomal activity against Schistosoma mansoni couples assessed as decrease in parasite motility at 25 uM measured upto 72 hrs by bright field microscopy; format: functional; set-up: scale not given: the % may be the effect or the level left
HepG2 [2] = assay: Cytotoxicity against human HepG2 cells assessed as reduction in cell vaibility at 100 uM by WST-1 assay; format: toxicity, cell-based; conditions: hepg2, 100 µM
LS174T [3] = assay: Cytotoxicity against human LS174T cells assessed as reduction in cell viability at 100 uM by WST-1 assay; format: toxicity, cell-based
Schistosoma mansoni [4] = assay: Antischistosomal activity against Schistosoma mansoni couples at 100 uM measured upto 72 hrs by bright field microscopy; format: functional, organism-based
Schistosoma mansoni [5] = assay: Antischistosomal activity against Schistosoma mansoni couples assessed as inhibition of eggs production at 25 uM measured upto 72 hrs by bright field microscopy; format: functional
Schistosoma mansoni [6] = assay: Antischistosomal activity against Schistosoma mansoni couples assessed as decrease in parasite vitality at 25 uM measured upto 72 hrs by bright field microscopy; format: functional, organism-based
Schistosoma mansoni [7] = assay: Antischistosomal activity against Schistosoma mansoni couples assessed as gut dilations at 25 uM measured upto 72 hrs by bright field microscopy; format: functional, organism-based
Schistosoma mansoni [8] = assay: Antischistosomal activity against Schistosoma mansoni couples assessed as couple separation at 25 uM measured upto 72 hrs by bright field microscopy; format: functional, organism-based
Schistosoma mansoni [9] = assay: Antischistosomal activity against Schistosoma mansoni couples assessed as tissue structural changes at 25 uM measured upto 72 hrs by bright field microscopy; format: functional, organism-based
Schistosoma mansoni [10] = assay: Antischistosomal activity against Schistosoma mansoni couples assessed as reduction in pairing stability at 100 uM measured upto 72 hrs by bright field microscopy; format: functional
Schistosoma mansoni [11] = assay: Antischistosomal activity against Schistosoma mansoni couples assessed as eggs deformation at 100 uM measured upto 72 hrs by bright field microscopy; format: functional
Schistosoma mansoni [12] = assay: Antischistosomal activity against Schistosoma mansoni couples assessed as decrease in parasite motility at 100 uM measured upto 72 hrs by bright field microscopy; format: functional; set-up: scale not given: the % may be the effect or the level left
Schistosoma mansoni [13] = assay: Antischistosomal activity against Schistosoma mansoni couples assessed as tegument damage at 100 uM measured upto 72 hrs by bright field microscopy; format: functional, organism-based
Schistosoma mansoni [14] = assay: Antischistosomal activity against Schistosoma mansoni couples assessed as tegument damage at <=50 uM measured upto 72 hrs by bright field microscopy; format: functional, organism-based
Schistosoma mansoni [15] = assay: Antischistosomal activity against Schistosoma mansoni couples assessed as reduction in parasite motility at <=50 uM measured upto 72 hrs by bright field microscopy; format: functional, organism-based
Schistosoma mansoni [16] = assay: Antischistosomal activity against Schistosoma mansoni couples at 50 uM measured upto 72 hrs by bright field microscopy; format: functional, organism-based
Schistosoma mansoni [17] = assay: Antischistosomal activity against Schistosoma mansoni couples at 25 uM measured upto 72 hrs by bright field microscopy; format: functional, organism-based
Schistosoma mansoni [18] = assay: Antischistosomal activity against Schistosoma mansoni couples assessed as decrease in parasite motility at 10 uM measured upto 72 hrs by bright field microscopy; format: functional, organism-based
Schistosoma mansoni [19] = assay: Antischistosomal activity against Schistosoma mansoni couples assessed as decrease in pairing stability at 5 uM measured upto 72 hrs by bright field microscopy; format: functional; set-up: scale not given: the % may be the effect or the level left
Schistosoma mansoni [20] = assay: Antischistosomal activity against Schistosoma mansoni couples assessed as inhibition of eggs production at 5 uM measured upto 72 hrs by bright field microscopy; format: functional; set-up: scale not given: the % may be the effect or the level left
Schistosoma mansoni [21] = assay: Antischistosomal activity against Schistosoma mansoni couples assessed as decrease in parasite vitality at 10 uM measured upto 72 hrs by bright field microscopy; format: functional
Schistosoma mansoni [22] = assay: Antischistosomal activity against Schistosoma mansoni couples assessed as dead worms at 25 uM measured upto 72 hrs by bright field microscopy; format: functional
Schistosoma mansoni [23] = assay: Antischistosomal activity against Schistosoma mansoni couples assessed as edematous swelling of gut at 25 uM measured upto 72 hrs by bright field microscopy; format: functional, organism-based
Schistosoma mansoni [24] = assay: Antischistosomal activity against Schistosoma mansoni couples assessed as inhibition of eggs production at 10 uM measured upto 72 hrs by bright field microscopy; format: functional, organism-based
Schistosoma mansoni [25] = assay: Antischistosomal activity against Schistosoma mansoni couples assessed as reduction in pairing stability at 10 uM measured upto 72 hrs by bright field microscopy; format: functional, organism-based
HepG2 [26] = assay: Cytotoxicity against human HepG2 cells assessed as reduction in cell vaibility at 25 uM by WST-1 assay; format: toxicity, cell-based; conditions: hepg2, 25 µM
LS174T [27] = assay: Cytotoxicity against human LS174T cells assessed as reduction in cell vaibility at 25 uM by WST-1 assay; format: toxicity, cell-based
HepG2 [28] = assay: Cytotoxicity against human HepG2 cells assessed as reduction in cell viability upto 50 uM by WST-1 assay; format: toxicity, cell-based; conditions: hepg2, 50 µM
LS174T [29] = assay: Cytotoxicity against human LS174T cells assessed as reduction in cell vaibility upto 50 uM by WST-1 assay; format: toxicity, cell-based
Schistosoma mansoni [30] = assay: Antischistosomal activity against Schistosoma mansoni couples at 5 uM measured upto 72 hrs by bright field microscopy; format: functional, organism-based
Schistosoma mansoni [31] = assay: Antischistosomal activity against Schistosoma mansoni couples assessed as inhibition of eggs production at 50 uM measured upto 72 hrs by bright field microscopy; format: functional, organism-based
Schistosoma mansoni [32] = assay: Antischistosomal activity against Schistosoma mansoni couples assessed as reduction in pairing stability at 50 uM measured upto 72 hrs by bright field microscopy; format: functional, organism-based
Schistosoma mansoni [33] = assay: Antischistosomal activity against Schistosoma mansoni couples assessed as reduction in pairing stability at 25 uM measured upto 72 hrs by bright field microscopy; format: functional
Schistosoma mansoni [34] = assay: Antischistosomal activity against Schistosoma mansoni couples assessed as decrease in parasite vitality at 5 uM measured upto 72 hrs by bright field microscopy; format: functional, organism-based
Schistosoma mansoni [35] = assay: Antischistosomal activity against Schistosoma mansoni couples assessed as gut dilations at 50 uM measured upto 72 hrs by bright field microscopy; format: functional, organism-based
Schistosoma mansoni [36] = assay: Antischistosomal activity against Schistosoma mansoni couples assessed as tegument damage at 50 uM measured upto 72 hrs by bright field microscopy; format: functional, organism-based
Schistosoma mansoni [37] = assay: Antischistosomal activity against Schistosoma mansoni couples assessed as intestinal dilations and tegument damage at 50 uM measured upto 72 hrs by bright field microscopy; format: functional, organism-based
Schistosoma mansoni [38] = assay: Antischistosomal activity against Schistosoma mansoni couples assessed as tegument damage at 25 uM measured upto 72 hrs by bright field microscopy; format: functional, organism-based
Schistosoma mansoni [39] = assay: Antischistosomal activity against Schistosoma mansoni couples assessed as intestinal dilations and tegument damage at 25 uM measured upto 72 hrs by bright field microscopy; format: functional, organism-based
Schistosoma mansoni [40] = assay: Antischistosomal activity against Schistosoma mansoni couples assessed as decrease in parasite motility at 50 uM measured upto 72 hrs by bright field microscopy; format: functional; set-up: scale not given: the % may be the effect or the level left
Schistosoma mansoni [41] = assay: Antischistosomal activity against Schistosoma mansoni couples assessed as decrease in parasite motility at <25 uM measured upto 72 hrs by bright field microscopy; format: functional, organism-based
Schistosoma mansoni [42] = assay: Antischistosomal activity against Schistosoma mansoni couples assessed as inhibition of eggs production at <25 uM measured upto 72 hrs by bright field microscopy; format: functional, organism-based
Schistosoma mansoni [43] = assay: Antischistosomal activity against Schistosoma mansoni couples assessed as decrease in mating stability <25 uM measured upto 72 hrs by bright field microscopy; format: functional, organism-based
Schistosoma mansoni [44] = assay: Antischistosomal activity against Schistosoma mansoni couples assessed as lethality to parasites at 100 uM measured upto 72 hrs by bright field microscopy; format: functional, organism-based

Question: Which results are given for `CN(C)CCN1CCN(C(=S)SCc2ccc([N+](=O)[O-])cc2)CC1`?
Answer: Activity (Schistosoma mansoni [1]): 55%; Activity (HepG2 [2]): Toxic; Activity (LS174T [3]): Toxic; Activity (Schistosoma mansoni [4]): Active; Activity (Schistosoma mansoni [5]): Active; Activity (Schistosoma mansoni [6]): Active; Activity (Schistosoma mansoni [7]): Active; Activity (Schistosoma mansoni [8]): Active; Activity (Schistosoma mansoni [9]): Active

Question: What does the source list for `CCCN(CCC)C(=S)SCc1ccccc1`?
Answer: Activity (Schistosoma mansoni [10]): Active; Activity (Schistosoma mansoni [11]): Active; Activity (Schistosoma mansoni [12]): ~40%; Activity (Schistosoma mansoni [13]): Active; Activity (Schistosoma mansoni [14]): inactive; Activity (Schistosoma mansoni [15]): inactive

Question: With `CCN(CC)C(=S)SCc1ccc(S(C)(=O)=O)cc1` as the compound, how does the Activity (Schistosoma mansoni [12]) read?
Answer: The Activity was about 60%.

Question: What about the Activity (Schistosoma mansoni [13]) of the same compound?
Answer: The Activity was “Active”.

Question: What about the Activity (Schistosoma mansoni [16]) of the same compound?
Answer: Its Activity is “Active”.

Question: What about the Activity (Schistosoma mansoni [17]) of the same compound?
Answer: The Activity was “inactive”.

Question: For `Cl.O=C([C@@H]1CCCN1)N1CCN(C(=S)SCc2ccc([N+](=O)[O-])cc2)CC1`, which Activity (Schistosoma mansoni [1]) is on record?
Answer: Its Activity is 65%.

Question: And the Activity (HepG2 [2])?
Answer: The Activity was “Toxic”.

Question: And the Activity (LS174T [3])?
Answer: The Activity was “Toxic”.

Question: And the Activity (Schistosoma mansoni [4])?
Answer: The Activity was “Active”.

Question: And the Activity (Schistosoma mansoni [18])?
Answer: Its Activity is “inactive”.

Question: And the Activity (Schistosoma mansoni [19])?
Answer: Its Activity is about 80%.

Question: And the Activity (Schistosoma mansoni [20])?
Answer: Its Activity is about 80%.

Question: And the Activity (Schistosoma mansoni [21])?
Answer: The Activity was “Active”.

Question: And the Activity (Schistosoma mansoni [22])?
Answer: Its Activity is “<=25%”.

Question: And the Activity (Schistosoma mansoni [23])?
Answer: The Activity was “Active”.

Question: And the Activity (Schistosoma mansoni [24])?
Answer: The Activity was “Active”.

Question: And the Activity (Schistosoma mansoni [25])?
Answer: The Activity was “Active”.

Question: And the Activity (HepG2 [26])?
Answer: Its Activity is “Toxic”.

Question: And the Activity (LS174T [27])?
Answer: The Activity was “Toxic”.

Question: What does the source list for `CCN(CC)C(=S)SCc1cc(=O)oc2cc(OC)ccc12`?
Answer: Activity (HepG2 [28]): Non-Toxic; Activity (LS174T [29]): Non-Toxic; Activity (Schistosoma mansoni [30]): Active

Question: How did the Activity (Schistosoma mansoni [31]) turn out when `CCN(CC)C(=S)SCc1ccc([N+](=O)[O-])cc1` was run?
Answer: The Activity was “Active”.

Question: What about the Activity (Schistosoma mansoni [32]) of the same compound?
Answer: Its Activity is “Active”.

Question: What about the Activity (Schistosoma mansoni [33]) of the same compound?
Answer: The Activity was “Active”.

Question: What about the Activity (Schistosoma mansoni [5]) of the same compound?
Answer: The Activity was “Active”.

Question: What about the Activity (Schistosoma mansoni [18]) of the same compound?
Answer: Its Activity is “Active”.

Question: And the Activity (Schistosoma mansoni [19])?
Answer: The Activity was “Active”.

Question: And the Activity (Schistosoma mansoni [34])?
Answer: The Activity was “Active”.

Question: And the Activity (Schistosoma mansoni [20])?
Answer: Its Activity is “Active”.

Question: And the Activity (Schistosoma mansoni [35])?
Answer: Its Activity is “Active”.

Question: What about the Activity (Schistosoma mansoni [36]) of the same compound?
Answer: Its Activity is “Active”.

Question: What about the Activity (Schistosoma mansoni [37]) of the same compound?
Answer: The Activity was “Active”.

Question: What about the Activity (Schistosoma mansoni [7]) of the same compound?
Answer: Its Activity is “Active”.

Question: What about the Activity (Schistosoma mansoni [38]) of the same compound?
Answer: Its Activity is “Active”.

Question: What about the Activity (Schistosoma mansoni [39]) of the same compound?
Answer: Its Activity is “Active”.

Question: Which Activity (Schistosoma mansoni [40]) does the source give for `CCN(CC)C(=S)SCc1cc([N+](=O)[O-])ccc1O` here?
Answer: The Activity was over 60%.

Question: And the Activity (Schistosoma mansoni [1])?
Answer: Its Activity is “inactive”.

Question: What about the Activity (Schistosoma mansoni [13]) of the same compound?
Answer: Its Activity is “Active”.

Question: And the Activity (Schistosoma mansoni [33])?
Answer: Its Activity is “>=90%”.

Question: What about the Activity (Schistosoma mansoni [5]) of the same compound?
Answer: Its Activity is “>=90%”.

Question: What about the Activity (Schistosoma mansoni [6]) of the same compound?
Answer: The Activity was “inactive”.

Question: And the Activity (Schistosoma mansoni [41])?
Answer: The Activity was “inactive”.

Question: And the Activity (Schistosoma mansoni [42])?
Answer: Its Activity is “inactive”.

Question: And the Activity (Schistosoma mansoni [43])?
Answer: The Activity was “inactive”.

Question: What about the Activity (Schistosoma mansoni [44]) of the same compound?
Answer: Its Activity is “Active”.
